Experimental data taken from patent US8247211B2, “Glycopeptide antibiotics” (American Cyanamid Company, priority 2001, dated 2012).
≈ marks a conversion by molar mass, not a printed value. One block for each compound: values may come before it.

How the values were obtained:
Test in all cases: In vitro antibacterial evaluation: minimum inhibitory concentration (MIC), broth dilution method
Type in all cases: cell-based
[1] = tested on: Enterococcus sp.; details: 18 hours at 35° C.
Summary of the method: (§1)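 MIC read as lowest drug level preventing visible growth. Organisms at 5×10^5 CFU/mL were exposed to a 64-0.06 μg/mL dilution series in Muller-Hinton II […] following NCCLS broth dilution standard M7-A2.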

[2] = tested on: Escherichia coli; details: 18 hours at 35° C.
Summary of the method: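 Using Muller-Hinton II […] and an inoculum of 5×10^5 CFU/mL, antibiotic dilutions from 64 down to 0.06 μg/mL were tested following NCCLS M7-A2. The MIC is the lowest concentration inhibiting growth, including in methicillin-, penicillin- or vancomycin-resistant clinical isolates.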

[3] = tested on: Staphylococcus sp.; details: for MIC Staphylococcus aureus (ATCC 29213): strain ATCC 29213; for MIC Staphylococcus aureus (GC 1131): strain GC 1131; for MIC Staphylococcus aureus (GC 3051): strain GC 3051; for MIC Staphylococcus aureus (GC 3053): strain GC 3053; for MIC Staphylococcus aureus (GC 4541): strain GC 4541; for MIC Staphylococcus aureus (GC 4542): strain GC 4542; for MIC Staphylococcus aureus-SMITH (GC 4543): strain GC 4543; for MIC Staphylococcus aureus (GC 4544): strain GC 4544; for MIC Staphylococcus aureus (GC 4545): strain GC 4545; for MIC Staphylococcus haemolyticus (GC 4546): strain GC 4546; for MIC Coagulase Negative Staphylococcus (GC 4547): strain GC 4547; for MIC Coagulase Negative Staphylococcus (GC 4548): strain GC 4548; for MIC Coagulase Negative Staphylococcus (GC 4549): strain GC 4549; for MIC Coagulase Negative Staphylococcus (GC 4551): strain GC 4551
Summary of the method: as §1

[4] = tested on: Streptococcus sp.; details: 18 hours at 35° C.
Summary of the method: as §1

[5] = Enterococcus faecalis (ATCC 29212)
[6] = Enterococcus faecalis (GC 2242)
[7] = Enterococcus faecalis (GC 2691)
[8] = Enterococcus faecalis (GC 3059)
[9] = Enterococcus faecalis (GC 4552)
[10] = Enterococcus faecalis (GC 4553)
[11] = Enterococcus faecalis (GC 4554)
[12] = Enterococcus faecalis (GC 6189)
[13] = broth dilution, inoculum 5×10^5 CFU/mL
[14] = Streptococcus agalactiae (GC 4564)
[15] = Streptococcus pneumoniae (ATCC 6301)
[16] = Streptococcus pneumoniae (GC 1894)
[17] = Streptococcus pneumoniae (GC 4565)
[18] = Streptococcus pyogenes (GC 4563)

- MIC Enterococcus avium (GC 4558) ([1]; Enterococcus avium (GC 4558)): 4 µg/mL (≈ 2.88 µM)
- MIC Enterococcus faecalis (ATCC 29212) [1, 5]: 4 µg/mL (≈ 2.88 µM)
- MIC Enterococcus faecalis (GC 2242) [1, 6]: 0.5 µg/mL (≈ 0.36 µM)
- MIC Enterococcus faecalis (GC 2691) [1, 7]: 4 µg/mL (≈ 2.88 µM)
- MIC Enterococcus faecalis (GC 3059) [1, 8]: 2 µg/mL (≈ 1.44 µM)
- MIC Enterococcus faecalis (GC 4552) [1, 9]: 2 µg/mL (≈ 1.44 µM)
- MIC Enterococcus faecalis (GC 4553) [1, 10]: 4 µg/mL (≈ 2.88 µM)
- MIC Enterococcus faecalis (GC 4554) [1, 11]: 4 µg/mL (≈ 2.88 µM)
- MIC Enterococcus faecalis (GC 6189) [1, 12]: 2 µg/mL (≈ 1.44 µM)
- MIC Enterococcus faecium (GC 2243) ([1]; Enterococcus faecium (GC 2243)): 4 µg/mL (≈ 2.88 µM)
- MIC Enterococcus faecium (GC 4556) ([1]; Enterococcus faecium (GC 4556)): 4 µg/mL (≈ 2.88 µM)
- MIC Enterococcus faecium (GC 4557) ([1]; Enterococcus faecium (GC 4557)): 2 µg/mL (≈ 1.44 µM)
- MIC Enterococcus avium (GC 4558) [1, 13]: 4 µg/mL (≈ 2.88 µM)
- MIC Enterococcus faecalis (ATCC 29212) [1, 13]: 4 µg/mL (≈ 2.88 µM)
- MIC Enterococcus faecalis (GC 2242) [1, 13]: 0.5 µg/mL (≈ 0.36 µM)
- MIC Enterococcus faecalis (GC 2691) [1, 13]: 4 µg/mL (≈ 2.88 µM)
- MIC Enterococcus faecalis (GC 3059) [1, 13]: 2 µg/mL (≈ 1.44 µM)
- MIC Enterococcus faecalis (GC 4552) [1, 13]: 2 µg/mL (≈ 1.44 µM)
- MIC Enterococcus faecalis (GC 4553) [1, 13]: 4 µg/mL (≈ 2.88 µM)
- MIC Enterococcus faecalis (GC 4554) [1, 13]: 4 µg/mL (≈ 2.88 µM)
- MIC Enterococcus faecalis (GC 6189) [1, 13]: 2 µg/mL (≈ 1.44 µM)
- MIC Enterococcus faecium (GC 2243) [1, 13]: 4 µg/mL (≈ 2.88 µM)
- MIC Enterococcus faecium (GC 4556) [1, 13]: 4 µg/mL (≈ 2.88 µM)
- MIC Enterococcus faecium (GC 4557) [1, 13]: 2 µg/mL (≈ 1.44 µM)
- MIC Escherichia coli (ATCC 25922) [2]: 32 µg/mL (≈ 23 µM)
- MIC Escherichia coli (GC 4559) [2]: 32 µg/mL (≈ 23 µM)
- MIC Escherichia coli (GC 4560) [2]: 1 µg/mL (≈ 0.72 µM)
- MIC Staphylococcus aureus (ATCC 29213) [3]: 1 µg/mL (≈ 0.72 µM)
- MIC Staphylococcus aureus (GC 1131) [3]: 2 µg/mL (≈ 1.44 µM)
- MIC Staphylococcus aureus (GC 3051) [3]: 1 µg/mL (≈ 0.72 µM)
- MIC Staphylococcus aureus (GC 3053) [3]: 2 µg/mL (≈ 1.44 µM)
- MIC Staphylococcus aureus (GC 4541) [3]: 1 µg/mL (≈ 0.72 µM)
- MIC Staphylococcus aureus (GC 4542) [3]: 1 µg/mL (≈ 0.72 µM)
- MIC Staphylococcus aureus-SMITH (GC 4543) [3]: 1 µg/mL (≈ 0.72 µM)
- MIC Staphylococcus aureus (GC 4544) [3]: 2 µg/mL (≈ 1.44 µM)
- MIC Staphylococcus aureus (GC 4545) [3]: 1 µg/mL (≈ 0.72 µM)
- MIC Coagulase Negative Staphylococcus (GC 4547) [3]: 2 µg/mL (≈ 1.44 µM)
- MIC Coagulase Negative Staphylococcus (GC 4548) [3]: 1 µg/mL (≈ 0.72 µM)
- MIC Coagulase Negative Staphylococcus (GC 4549) [3]: 1 µg/mL (≈ 0.72 µM)
- MIC Coagulase Negative Staphylococcus (GC 4551) [3]: 2 µg/mL (≈ 1.44 µM)
- MIC Streptococcus agalactiae (GC 4564) [4, 14]: 0.12 µg/mL (≈ 0.0864 µM)
- MIC Streptococcus pneumoniae (ATCC 6301) [4, 15]: <0.06 µg/mL
- MIC Streptococcus pneumoniae (GC 1894) [4, 16]: <0.06 µg/mL
- MIC Streptococcus pneumoniae (GC 4565) [4, 17]: <0.06 µg/mL
- MIC Streptococcus pyogenes (GC 4563) [4, 18]: <0.06 µg/mL
- MIC Streptococcus agalactiae (GC 4564) [4, 13]: 0.12 µg/mL (≈ 0.0864 µM)
- MIC Streptococcus pneumoniae (ATCC 6301) [4, 13]: <0.06 µg/mL
- MIC Streptococcus pneumoniae (GC 1894) [4, 13]: <0.06 µg/mL
- MIC Streptococcus pneumoniae (GC 4565) [4, 13]: <0.06 µg/mL
- MIC Streptococcus pyogenes (GC 4563) [4, 13]: <0.06 µg/mL
SMILES: N=C1NCC(C(O)C2NC(=O)C(Cc3ccc(OC4OC(CO)C(OC5OC6COC(Cc7ccccc7)OC6C(O)C5O)C(O)C4O)cc3)NC(=O)C(CC3CCCCC3)NC(=O)CNC(=O)C(CO)NC(=O)C(C(O)C3CNC(=N)N3C3OC(CO)C(O)C(O)C3O)NC2=O)N1 (stereo not drawn) [Example 200, Cyclo[3-cyclohexylalanyl-O-[4-O-[4,6-O-phenethylidene-hexopyranosyl]hexopyranosyl]tyrosyl-3-(2-iminoimidazolidin-4-yl)seryl-3-(3-hexopyranosyl-2-iminoimidazolidin-4-yl)serylserylglycyl]]
- MIC Staphylococcus haemolyticus (GC 4546) [3]: 1 µg/mL (≈ 0.72 µM)

- MIC Enterococcus avium (GC 4558) ([1]; Enterococcus avium (GC 4558)): 1 µg/mL (≈ 0.72 µM)
- MIC Enterococcus faecalis (ATCC 29212) [1, 5]: 1 µg/mL (≈ 0.72 µM)
- MIC Enterococcus faecalis (GC 2242) [1, 6]: 1 µg/mL (≈ 0.72 µM)
- MIC Enterococcus faecalis (GC 2691) [1, 7]: 1 µg/mL (≈ 0.72 µM)
- MIC Enterococcus faecalis (GC 3059) [1, 8]: 1 µg/mL (≈ 0.72 µM)
- MIC Enterococcus faecalis (GC 4552) [1, 9]: 1 µg/mL (≈ 0.72 µM)
- MIC Enterococcus faecalis (GC 4553) [1, 10]: 1 µg/mL (≈ 0.72 µM)
- MIC Enterococcus faecalis (GC 4554) [1, 11]: 1 µg/mL (≈ 0.72 µM)
- MIC Enterococcus faecalis (GC 6189) [1, 12]: 1 µg/mL (≈ 0.72 µM)
- MIC Enterococcus faecium (GC 2243) ([1]; Enterococcus faecium (GC 2243)): 1 µg/mL (≈ 0.72 µM)
- MIC Enterococcus faecium (GC 4556) ([1]; Enterococcus faecium (GC 4556)): 1 µg/mL (≈ 0.72 µM)
- MIC Enterococcus faecium (GC 4557) ([1]; Enterococcus faecium (GC 4557)): 0.5 µg/mL (≈ 0.36 µM)
- MIC Enterococcus avium (GC 4558) [1, 13]: 1 µg/mL (≈ 0.72 µM)
- MIC Enterococcus faecalis (ATCC 29212) [1, 13]: 1 µg/mL (≈ 0.72 µM)
- MIC Enterococcus faecalis (GC 2242) [1, 13]: 1 µg/mL (≈ 0.72 µM)
- MIC Enterococcus faecalis (GC 2691) [1, 13]: 1 µg/mL (≈ 0.72 µM)
- MIC Enterococcus faecalis (GC 3059) [1, 13]: 1 µg/mL (≈ 0.72 µM)
- MIC Enterococcus faecalis (GC 4552) [1, 13]: 1 µg/mL (≈ 0.72 µM)
- MIC Enterococcus faecalis (GC 4553) [1, 13]: 1 µg/mL (≈ 0.72 µM)
- MIC Enterococcus faecalis (GC 4554) [1, 13]: 1 µg/mL (≈ 0.72 µM)
- MIC Enterococcus faecalis (GC 6189) [1, 13]: 1 µg/mL (≈ 0.72 µM)
- MIC Enterococcus faecium (GC 2243) [1, 13]: 1 µg/mL (≈ 0.72 µM)
- MIC Enterococcus faecium (GC 4556) [1, 13]: 1 µg/mL (≈ 0.72 µM)
- MIC Enterococcus faecium (GC 4557) [1, 13]: 0.5 µg/mL (≈ 0.36 µM)
- MIC Escherichia coli (ATCC 25922) [2]: 16 µg/mL (≈ 11.5 µM)
- MIC Escherichia coli (GC 4559) [2]: 16 µg/mL (≈ 11.5 µM)
- MIC Escherichia coli (GC 4560) [2]: 0.25 µg/mL (≈ 0.18 µM)
- MIC Staphylococcus aureus (ATCC 29213) [3]: 0.25 µg/mL (≈ 0.18 µM)
- MIC Staphylococcus aureus (GC 1131) [3]: 0.25 µg/mL (≈ 0.18 µM)
- MIC Staphylococcus aureus (GC 3051) [3]: 0.5 µg/mL (≈ 0.36 µM)
- MIC Staphylococcus aureus (GC 3053) [3]: 0.5 µg/mL (≈ 0.36 µM)
- MIC Staphylococcus aureus (GC 4541) [3]: 0.5 µg/mL (≈ 0.36 µM)
- MIC Staphylococcus aureus (GC 4542) [3]: 0.25 µg/mL (≈ 0.18 µM)
- MIC Staphylococcus aureus-SMITH (GC 4543) [3]: 0.5 µg/mL (≈ 0.36 µM)
- MIC Staphylococcus aureus (GC 4544) [3]: 0.25 µg/mL (≈ 0.18 µM)
- MIC Staphylococcus aureus (GC 4545) [3]: 0.25 µg/mL (≈ 0.18 µM)
- MIC Coagulase Negative Staphylococcus (GC 4547) [3]: 0.25 µg/mL (≈ 0.18 µM)
- MIC Coagulase Negative Staphylococcus (GC 4548) [3]: 0.25 µg/mL (≈ 0.18 µM)
- MIC Coagulase Negative Staphylococcus (GC 4549) [3]: 0.25 µg/mL (≈ 0.18 µM)
- MIC Coagulase Negative Staphylococcus (GC 4551) [3]: 0.25 µg/mL (≈ 0.18 µM)
- MIC Streptococcus agalactiae (GC 4564) [4, 14]: <0.12 µg/mL
- MIC Streptococcus pneumoniae (ATCC 6301) [4, 15]: <0.12 µg/mL
- MIC Streptococcus pneumoniae (GC 1894) [4, 16]: <0.12 µg/mL
- MIC Streptococcus pneumoniae (GC 4565) [4, 17]: <0.12 µg/mL
- MIC Streptococcus pyogenes (GC 4563) [4, 18]: <0.12 µg/mL
- MIC Streptococcus agalactiae (GC 4564) [4, 13]: <0.12 µg/mL
- MIC Streptococcus pneumoniae (ATCC 6301) [4, 13]: <0.12 µg/mL
- MIC Streptococcus pneumoniae (GC 1894) [4, 13]: <0.12 µg/mL
- MIC Streptococcus pneumoniae (GC 4565) [4, 13]: <0.12 µg/mL
- MIC Streptococcus pyogenes (GC 4563) [4, 13]: <0.12 µg/mL
SMILES: CC(C1CCCCC1)C1NC(=O)CNC(=O)C(CO)NC(=O)C(C(O)C2CNC(=N)N2C2OC(CO)C(O)C(O)C2O)NC(=O)C(C(O)C2CNC(=N)N2)NC(=O)C(Cc2ccc(OC3OC(CO)C(OC4OC5COC(c6ccccc6)OC5C(O)C4O)C(O)C3O)cc2)NC1=O (stereo not drawn) [Example 201, Cyclo[3-cyclohexyl-2-aminobutanoyl-O-[4-O-[4,6-O-benzylidenehexonyranosyl]hexopyranosyl]tyrosyl-3-(2-iminoimidazolidin-4-yl)seryl-3-(3-hexopyranosyl-2-iminoimidazolidin-4-yl)serylserylglycyl]]
- MIC Staphylococcus haemolyticus (GC 4546) [3]: 0.25 µg/mL (≈ 0.18 µM)
